# Source: patent US8110365B2, “Compositions and methods for detecting and treating renal injury and inflammation” (Rhode Island Hospital, priority 2006, dated 2012)
# Entries after “also recorded” stand apart in the source; their conditions may differ.
# Experiments:
# [1] = biological target: T1, GSK3b and NFkB p65 (Homo sapiens, UniProt P49841, S9A); test: Co-immunoprecipitation of GSK3b and NFkB p65 in HKC cells; type: cell-based; conditions: HKC cells expressing S9A, TNF-a stimulation
# T1 construct: endogenous in cells; host or cells: HKC-8
# T1 sequence (P49841 whole entry S9A): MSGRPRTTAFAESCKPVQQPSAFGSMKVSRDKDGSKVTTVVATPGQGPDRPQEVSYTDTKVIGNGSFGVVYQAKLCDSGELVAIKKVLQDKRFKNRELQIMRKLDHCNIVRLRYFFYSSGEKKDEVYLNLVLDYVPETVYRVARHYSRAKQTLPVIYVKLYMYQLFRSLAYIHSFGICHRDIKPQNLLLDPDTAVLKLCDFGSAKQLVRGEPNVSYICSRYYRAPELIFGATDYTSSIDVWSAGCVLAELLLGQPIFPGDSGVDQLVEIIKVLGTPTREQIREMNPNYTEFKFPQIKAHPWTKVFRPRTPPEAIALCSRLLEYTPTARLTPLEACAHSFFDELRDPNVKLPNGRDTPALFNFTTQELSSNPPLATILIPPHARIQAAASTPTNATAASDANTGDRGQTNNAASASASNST
# Description: (§1) Immunoprecipitation was carried out by using an established method as described previously. Briefly, cells were washed with ice cold PBS and then lysed with RIPA buffer. After preclearing with normal IgG, cell lysates with equal amount of total protein (0.5 mg of protein) were incubated overnight at 4° C. with 4 μg specific agarose-conjugated antibodies. The precipitated complexes were collected, washed, and separated on SDS-polyacrylamide gels and blotted with various antibodies as indicated.
# [2] = biological target: T2, GSK3b and NFkB p65 (Homo sapiens, UniProt P49841); test: as above; type: cell-based
# T2 construct: whole cell lysates were subjected to immunoprecipitation by anti-GSK3b or anti-p65 antibody; endogenous in cells; host or cells: HKC-8
# T2 sequence (P49841 whole entry): as the sequence (P49841 whole entry S9A) above, with A9S counted along it
# Description: as §1
# [3] = tested on: NF-κB p65 binding to E-selectin promoter; test: DNA affinity precipitation and ChIP of NF-κB p65 at the E-selectin promoter in HUVEC; type: cell-based, human; conditions: 4 h after treatment
# Description: (§2) To explore the role of GSK3b in HGF suppression of inflammation, we examined the effect of HGF on NF-κB activation in endothelial cells (FIG. 8A˜C) and TEC (FIG. 8D). […] (FIG. 8A). To determine whether HGF modulation of NF-κB transcriptional activity alters target gene (E-selectin) levels, DNA affinity precipitation assay was carried out at 4 h after treatment. Proteins in cell lysates were pulled down by biotin labeled oligonucleotides with the sequence of the E-selectin promoter region spanning the κB elements. […] To further examine the effect of HGF on NF-κB binding to the E-selectin gene in vivo, chromatin immunoprecipitation (ChIP) was applied at 4 h after treatments (FIG. 8C).
# [4] = biological target: T3, GSK3b (Homo sapiens, UniProt P49841); test: Inhibitory phosphorylation of GSK3b in HUVEC (immunoblot); type: cell-based; design: endogenous in cells; conditions: LiCl 20 mM, HGF 100 ng/ml
# T3 sequence (P49841 whole entry): as the sequence (P49841 whole entry S9A) above, with A9S counted along it
# [5] = tested on: NFkB target genes; test: Real time RT-PCR of NFkB target genes in TNF-a stimulated HKC cells; type: cell-based, human
# Description: Total RNA was extracted from approximately 1×10^6 cultured HKC cells using TRIzol solution (Invitrogen, Carlsbad, Calif.) according to the instructions specified by the manufacturer. RNA was then diluted to 3μg/μl in RNase free distilled water. The first strand cDNA was prepared using 3 μg RNA, Superscript RT reverse transcriptase (Invitrogen) and oligo (dT) primer according to the manufacture's instruction. Quantitative real time PCR was carried out on a Stratagene Mx4000® multiplex quantitative PCR system (Stratagene, La Jolla, Calif.) using primers specific for human MCP-1, RANTES, IkBa, Bcl-2 and GAPDH. All reactions were performed in triplicate with Brilliant® SYBR® Green QPCR Master Mix (Stratagene). Fluorescence values of SYBR Green I dye, representing the amount of product amplified at that point in the reaction, were recorded in real time at both the annealing step and the extension step of each cycle. The Ct value, defined as the point at which the fluorescence signal was statistically significant above background, was calculated for each amplicon in each experimental sample using Stratagene Mx4000 software. This value was then used to determine the relative amount of amplification in each sample by interpolating from the standard curve. Transcript level of each specific gene was normalized to GAPDH amplification.
# [6] = tested on: endothelial cells; test: Monocyte adhesion to TNF-α-activated endothelial monolayers; type: cell-based, human
# [7] = tested on: NF-κB; test: NF-κB luciferase reporter gene assay in endothelial cells; type: cell-based, human; conditions: 24 h
# Description: as §2
# [8] = tested on: MCP-1 and RANTES; test: TNF-α induced chemokine (MCP-1, RANTES) expression in HKC cells; type: cell-based, human
# Description: In certain embodiments, Enzyme-linked Immunosorbent assay (ELISA) is used to evaluate GSK3b proten level. For example, rat kidneys were homogenized in RIPA [1% Nonidet P-40, 0.1% SDS, 100ug/ml phenylmethysulfonyl fluoride (PMSF), 0.5% sodium deoxycholate, 1 mM sodium orthovanadate, 2 ug/ml aprotin, 2 ug/ml leupeptin, 5 mM EDTA in PBS] buffer. Chemokine levels in homogenates of equal amounts of total protein were measured using specific sandwich enzyme immunometric assay kits for rat. Chemokines in conditioned media from HKC were determined by specific sandwich ELISA kits for human (R&D Systems) according to the manufacturer's instructions. Results were normalized for protein amounts in kidney homogenates, or for cell number in cultures.
# (§3) Human proximal TEC (HKC-8) (courtesy of Dr. L. Racusen of John Hopkins University, Baltimore, Md.) were maintained in Dulbecco's modified Eagle's medium (DMEM)/F12 supplemented with 5% fetal bovine serum (FBS). Cells were plated at approximately 70% confluence in the media containing 5% FBS for 24 h and then underwent serum starvation for another 24 h. Human recombinant HGF and human recombinant TNF-α (R&D systems, Minneapolis, Minn.) were added to the culture with fresh serum-free medium at a final concentration of 20 ng/ml and 2 ng/ml respectively, or otherwise as indicated. Cell viability was assessed by Trypan blue exclusion. At different time points, cells and conditioned media were harvested for further investigation.
# [9] = biological target: T3, GSK3b; test: Inhibitory phosphorylation of GSK3b in HKC cells (immunoblot); type: cell-based; design: endogenous in cells; host or cells: HKC-8
# Description: as §3
# After different treatments, HKC cells were washed with PBS and lysed with RIPA buffer supplemented with protease inhibitors [1% Nonidet P-40, 0.1% SDS, 100 ug/ml phenylmethysulfonyl fluoride (PMSF), 0.5% sodium deoxycholate, ImM sodium orthovanadate, 2 ug/ml aprotin, 2 ug/ml leupeptin, 5mM EDTA in PBS]. Protein concentration was determined by using a bicinchoninic acid protein assay kit (Sigma). All samples with equal amounts of total protein (50 ug/ml) were fractionated by 7.5˜15% SDS-polyacrylamide gels under reducing condition and analyzed by western immunoblot as described previously (30). The antibodies against p-GSK3b, p-NFkB p65, p-IkBa were purchased from Cell Signaling Technology (Beverly, Mass.) and those for GSK3b, hemagglutin were from Santa Cruz Biotechnology (Santa Cruz, Calif.).
substance,measurement,setting,value
HGF: Human recombinant HGF (R&D systems); induces inhibitory phosphorylation of GSK3b,co-precipitation of HA-tagged GSK3b with p65 / phosphorylated p65(S468),[1],considerably abrogated in HKC cells expressing S9A; also recorded: substantially blunted in cells expressing S9A; also recorded: overridden in cells expression the mutant uninhibitable GSK3b
same,TNF-a induced co-precipitation of phosphorylated p65 (Ser468) with GSK3b,"[2]; HKC cells, immunoprecipitation by anti-GSK3b",abrogated TNFa induced co-precipitation
same,TNF-a induced GSK3b to p65 interaction,"[2]; HKC cells, immunoprecipitation by anti-p65",remarkably overridden by HGF; also recorded: suppressive effect on physical interaction between GSK3b and RelA/p65
same,co-precipitation of HA-tagged GSK3b with p65 / phosphorylated p65(S468),"[2]; WT transfected HKC cells, TNF-a stimulation",markedly reduced HA co-precipitation with p65 in the WT transfected cells; also recorded: significantly attenuated by HGF in WT transfected cells
same,TNF-α induced NF-κB binding to E-selectin promoter / gene,[3],counteracted NF-kB interaction with kB elements at the E-selectin gene level; also recorded: significantly blunted TNF-α induced NF-κB binding to E-selectin promoter sequence; also recorded: prevents NF-κB mediated transcription of E-selectin; also recorded: blunts NF-kB activation and its target E-selectin gene
same,inhibitory phosphorylation of GSK3b at serine 9,[4],"inhibited its downstream transducer, GSK-3b, by phosphorylation at serine-9; also recorded: inactivates GSK3b by inhibitory phosphorylation at ser-9; also recorded: induces inhibitory phosphorylation of GSK3b"
same,suppressive effect of HGF on TNF-a induced MCP-1 and RANTES mRNA expression,[5]; HKC cells expressing S9A,obliterated in cells expressing S9A; also recorded: obliterated in cells expressing the mutant uninhibitable GSK3b
same,suppressive effect of HGF on TNF-a induced MCP-1 and RANTES mRNA expression,[5]; HKC cells transfected with EV or WT,present in cells transfected with EV or WT
same,TNF-a induced mRNA expression of IkBa and Bcl-2,"[5]; HKC cells, 12 h",not remarkably affected
same,TNF-a induced mRNA expression of MCP-1 and RANTES,"[5]; HKC cells, 12 h",strikingly attenuated TNF-a induced mRNA expression of MCP-1 and RANTES; also recorded: selectively regulates TNF-a induced transcription of specific NFkB target genes
same,monocytic adhesion to endothelial cells,[6],abrogated monocyte adhesion to TNF-α-activated endothelial monolayers; also recorded: inhibited E-selectin mediated monocytic adhesion to endothelial cells
same,TNF-α induced NF-κB reporter gene (transcription) activity,[7],suppressed TNF-a induced NF-kB reporter gene activity; also recorded: significantly reduced TNF-α induced NF-κB transcription activity; also recorded: blunts NF-kB activation
same,"HGF inhibition of chemokine (RANTES, MCP-1) expression",[8]; HKC cells expressing uninhibitable mutant S9A-GSK3b,abolished HGF inhibition of basal and TNF-α stimulated RANTES expression; also recorded: abolished HGF suppression of E-selectin; also recorded: abolishes HGF's inhibitory effect
same,"HGF inhibition of chemokine (RANTES, MCP-1) expression",[8]; HKC cells transfected with pcDNA3 or WT-GSK3b,did not alter the inhibitory action of HGF on RANTES; also recorded: HGF inhibition of chemokine expression was evident
same,"basal and TNF-α induced chemokine (RANTES, MCP-1) expression","[8]; HKC cells, lithium 20 mM, HGF 20 ng/ml, TNF-a 2 ng/ml",suppresses basal and TNF-α-induced expression of RANTES in a time and dose dependent fashion; also recorded: suppressed MCP-1 and RANTES in a time and dose dependent manner; also recorded: blocked this induction; also recorded: attenuates TNF-α elicited chemokine expression; also recorded: attenuates TNF-a (2 ng/ml) elicited chemokine expression
same,inhibitory phosphorylation of GSK3b (S9),[9],"inhibited GSK3, by phosphorylation at Ser-9; also recorded: induce GSK3b phosphorylation at Ser9; also recorded: induces inhibitory phosphorylation of GSK3b at S9"
